Assay results taken from article PMC7015555, “Transthyretin-Binding Activity of Complex Mixtures Representing the Composition of Thyroid-Hormone Disrupting Contaminants in House Dust and Human Serum” (Environmental Health Perspectives, 2020).
Read-outs that look alike come from different tables or passages of the source.

Columns and labels:
[1] = biological target: TTR (Homo sapiens, UniProt P02766); test: FITC-T4 TTR competitive binding assay; settings: for REP (relative potency compared to T4): IC20 of T4 / IC20 of compound (Equation 14); for IC50: read-out: IC50; for T4EQ concentration (nmol/g dust): reported concentration of the compound in SRM2585 dust x REP
[2] = tested on: TTR; settings: cited from earlier work; for IC50: read-out: IC50 (M), Radioactive Ligand Binding Assay data from the literature; for REP, Radioactive Ligand Binding Assay data from the literature: relative effect potency
[3] = 20% inhibition of FITC-T4 binding to TTR, 30 nM TTR, 110 nM FITC-T4, 2 h at 4°C, pH 8.0
[4] = individual compounds, 30 nM TTR, 110 nM FITC-T4, 2 h at 4°C, pH 8.0, — = 50% inhibition level not reached (footnote g)
[5] = inhibitor-TTR dissociation constant converted from IC20 (Equation 4), 4°C, read-out: Ki

| Structure (SMILES) | IC20 [1, 3] [nM] | REP (relative potency compared to T4) [1] | IC50 [1, 4] [nM] | Ki [1, 5] [nM] | IC50 ([2]; ref Weiss et al. 2015) [M] | REP, Radioactive Ligand Binding Assay data from the literature ([2]; ref Weiss et al. 2015) | Ki ([1]; read-out: Ki) [nM] | T4EQ concentration (nmol/g dust) [1] [nmol/g dust] | Ki [1] [nM] | IC20 ([1]; pH 8) [nM] | IC50 [1] [nM] | REP, Radioactive Ligand Binding Assay data from the literature ([2]; ref Marchesini et al. 2008) | maximum competitive potency at high test concentrations ([1]; Figure 1C) | inhibition of FITC-T4-TTR-binding ([1]; present study (Figure 1C)) [%] | T4-TTR binding inhibition in the RLBA ([2]; at 10 µM (highest concentration), ref Hamers et al. 2006) |
| --- | --- | --- | --- | --- | --- | --- | --- | --- | --- | --- | --- | --- | --- | --- | --- |
| Oc1c(Cl)c(Cl)c(-c2cc(Cl)c(Cl)cc2Cl)c(Cl)c1Cl [4-OH-CB-187, 4-OH-2,2ʹ,3,4ʹ,5,5ʹ,6-heptachlorobiphenyl] | 8.2 | 2.6 | 17 | 4 | 1.98e-08 | 4 |  |  |  |  |  |  |  |  |  |
| O=S(=O)(O)C(F)(F)C(F)(F)C(F)(F)C(F)(F)C(F)(F)C(F)(F)C(F)(F)C(F)(F)F [PFOS, perfluorooctane sulfonic acid] | 82 | 0.26 | 250 |  | 9.4e-07 | 0.065 | 160 | 1.201 |  |  |  |  |  |  |  |
| O=S(=O)(O)C(F)(F)C(F)(F)C(F)(F)C(F)(F)C(F)(F)C(F)(F)F [PFHxS, perfluorohexane sulfonic acid] |  | 0.16 |  |  | 7.17e-07 | 0.085 |  | 0.561 | 280 | 140 | 460 |  |  |  |  |
| Oc1cc(Br)cc(Br)c1Oc1cc(Br)c(Br)cc1Br [6ʹ-OH-BDE-99, 6ʹ-OH-2,2ʹ,4,4ʹ,5-pentabromodiphenyl ether] | 8.4 | 2.5 | 20 | 4.5 |  |  |  |  |  |  |  | 0.2 |  |  |  |
| Oc1cc(Oc2ccc(Br)cc2Br)c(Br)cc1Br [5-OH-BDE-47, 5-OH-2,2ʹ,4,4ʹ-tetrabromodiphenyl ether] | 14 | 1.5 | 27 | 16 | 2.5e-08 | 3 |  |  |  |  |  |  |  |  |  |
| O=C(O)C(F)(F)C(F)(F)C(F)(F)C(F)(F)C(F)(F)C(F)(F)C(F)(F)C(F)(F)C(F)(F)F [PFDA, perfluorodecanoic acid] | 1700 | 0.012 | 5400 |  | 8.95e-06 | 0.007 | 3700 | 0.001 |  |  |  |  |  |  |  |
| NS(=O)(=O)C(F)(F)C(F)(F)C(F)(F)C(F)(F)C(F)(F)C(F)(F)C(F)(F)C(F)(F)F [FOSA, perfluorooctane sulfonamide] |  | 0.11 |  | 400 | 6.12e-06 | 0.01 |  | 0.002 |  | 190 | 730 |  |  |  |  |
| O=C(O)C(F)(F)C(F)(F)C(F)(F)C(F)(F)C(F)(F)C(F)(F)C(F)(F)F [PFOA, perfluorooctanoic acid] |  | 0.043 |  |  | 9.49e-07 | 0.064 |  | 0.060 | 1100 | 490 | 1100 |  |  |  |  |
| CC(C)(c1cc(Br)c(O)c(Br)c1)c1cc(Br)c(O)c(Br)c1 [TBBPA, tetrabromo-bisphenol-A] | 14 | 1.5 | 34 |  | 3.1e-08 | 1.6 | 17 | 0.586 |  |  |  |  |  |  |  |
| O=C(O)C(F)(F)C(F)(F)C(F)(F)C(F)(F)C(F)(F)C(F)(F)C(F)(F)C(F)(F)C(F)(F)C(F)(F)F [PFUnDA, perfluoroundecanoic acid] | 1000 | 0.021 | 3100 |  | 2.16e-05 | 0.003 | 2200 | 0.002 |  |  |  |  |  |  |  |
| Oc1cc(Br)cc(Br)c1Oc1ccc(Br)cc1Br [6-OH-BDE-47, 6-OH-2,2ʹ,4,4ʹ-tetrabromodiphenyl ether] | 31 | 0.68 | 98 | 54 | 1.5e-07 | 0.39 |  |  |  |  |  |  |  |  |  |
| Brc1ccc(Oc2cc(Br)c(Br)cc2Br)c(Br)c1 [BDE-99, 2,2ʹ,4,4ʹ,5-pentabromodiphenyl ether] |  | 0.29 |  |  |  |  |  | 0.458 | 150 | 73 |  |  | leveled off before reaching complete inhibition | > 20 | <20% inhibition at 10 µM (Hamers et al. 2006) |
